Experimental data as given in article PMC6470738, “Characterization of the High-Affinity Drug Ligand Binding Site of Mouse Recombinant TSPO” (International Journal of Molecular Sciences, 2019).
“And” between values parts separate entries of the source, which are not always exact repeats. Equal values may be shown once. “Also recorded” adds a separate entry of the source. Read-outs that look alike come from different tables or passages of the source.

Key:
TSPO ∆157-169 = biological target: TSPO ∆157-169; set-up: method as in Farges et al. (1994); conditions: yeast mitochondria, ref Farges et al. (1994), read-out: PK 11195 Kd; cited from earlier work
TSPO Wild-type = biological target: TSPO Wild-type; set-up: method as in Farges et al. (1994); conditions: yeast mitochondria, ref Farges et al. (1994), read-out: PK 11195 Kd; cited from earlier work
TSPO W42 mutation = test system: TSPO W42 mutation; set-up: method as in PMID 7808437; conditions: cited from earlier work
TSPO K39G = test system: TSPO K39G; set-up: method as in PMID 7808437; conditions: cited from earlier work
TSPO2 = test system: TSPO2; set-up: method as in PMID 19729679; conditions: paralogous TSPO2; cited from earlier work
TSPO ∆2-20,158-169 = biological target: TSPO ∆2-20,158-169; set-up: method as in Farges et al. (1994); conditions: yeast mitochondria, ref Farges et al. (1994), read-out: PK 11195 Kd; cited from earlier work
TSPO ∆158-159 = biological target: TSPO ∆158-159; set-up: method as in Farges et al. (1994); conditions: yeast mitochondria, ref Farges et al. (1994), read-out: PK 11195 Kd; cited from earlier work
mammalian TSPO ∆41-51 = test system: mammalian TSPO ∆41-51; set-up: method as in Li et al. (1998); conditions: bacterial protoplast, control = wild type, ref Li et al. (1998); cited from earlier work
TSPO ∆156-169 = biological target: TSPO ∆156-169; set-up: method as in Farges et al. (1994); conditions: yeast mitochondria, ref Farges et al. (1994), read-out: PK 11195 Kd; cited from earlier work
rec-mTSPO WT = biological target: T1, rec-mTSPO WT (Mus musculus, UniProt P50637); experiment: [3H]-PK 11195 saturation binding to rec-mTSPO reconstituted in proteoliposomes
T1 construct: His tag; made in house; host or cells: E. coli BL21 DE3
Protocol: (§1) SDS-solubilized mTSPO was reincorporated in proteoliposomes by mixing with SDS solubilized lipids (dimyristoyl phosphatidyl choline/dimyristoyl phosphatidyl ethanolamine, 9:1) at a lipid to protein ratio of 5 (w/w). The detergent was removed using Bio-Beads SM2 according to published protocols. Reconstitution was followed by combining the fluorescence and optical changes as previously described.
(§2) Proteoliposomes containing recombinant mTSPO were incubated with various concentrations of [^3H]-PK 11195 (SA, 83.5 Ci/mmol, Perkin Elmer SAS, Courtaboeuf, France) in phosphate buffer saline (PBS). The bound ligand was quantified by liquid scintillation spectrometry after filtration on Whatman Filters GF/C (Sigma-Aldrich, Saint Quentin Fallavier, France) according to published protocols. The Kd and Bmax values were determined by fitting the saturation curves with the following equation Ligand bound = (Bmax × Ligand)/(Kd + Ligand).

mammalian TSPO ∆120-133 = test system: mammalian TSPO ∆120-133; set-up: method as in Li et al. (1998); conditions: bacterial protoplast, control = wild type, ref Li et al. (1998); cited from earlier work
[1] = test system: TSPO A147T (polymorphism rs6971); conditions: human polymorphism rs6971; cited from earlier work
TSPO R103A = test system: TSPO R103A; set-up: method as in PMID 7808437; conditions: cited from earlier work
mammalian TSPO ∆153-169 = test system: mammalian TSPO ∆153-169; set-up: method as in Li et al. (1998); conditions: bacterial protoplast, control = wild type, ref Li et al. (1998); cited from earlier work
TSPO ∆2-20 = biological target: TSPO ∆2-20; set-up: method as in Farges et al. (1994); conditions: yeast mitochondria, ref Farges et al. (1994), read-out: PK 11195 Kd; cited from earlier work
TSPO W47 mutation = test system: TSPO W47 mutation; set-up: method as in PMID 7808437; conditions: cited from earlier work
rec-mTSPO F100A = biological target: T2, rec-mTSPO F100A (Mus musculus, UniProt P50637, F100A); experiment: [3H]-PK 11195 saturation binding to rec-mTSPO reconstituted in proteoliposomes
T2 construct: His tag; made in house; host or cells: E. coli
Protocol: (§3) Mutations were performed using the QuikChange Site-Directed Mutagenesis kit (Stratagene, France) according to published protocols. In brief, miniprep pET-PBR plasmid double-strand DNA was used as a template. Synthetic oligonucleotide primer pairs containing a point mutation or deletion, each complementary to the opposing strand of the vector, were extended during temperature cycling by pfu DNA polymerase. The nicked vector DNAs containing the desired mutations were then transfected into E. coli.
as §1, §2

rec-mTSPO Y34F/F100A = biological target: T3, rec-mTSPO Y34F/F100A (Mus musculus, UniProt P50637, F100A/Y34F); experiment: as above
T3 construct: His tag; made in house; host or cells: E. coli
Protocol: as §3, §1, §2

rec-mTSPO Y34F = biological target: T4, rec-mTSPO Y34F (Mus musculus, UniProt P50637, Y34F); experiment: as above
T4 construct: His tag; made in house; host or cells: E. coli
Protocol: as §3, §1, §2

rec-mTSPO Δ41–51 = biological target: T5, rec-mTSPO Δ41–51 (Mus musculus, UniProt P50637, DEL41-51); experiment: as above; conditions: Δ41–50 as printed in Table 1
T5 construct: His tag; made in house; host or cells: E. coli
Protocol: as §3, §1, §2

rec-mTSPO Y34F/F99A = biological target: T6, rec-mTSPO Y34F/F99A (Mus musculus, UniProt P50637, F99A/Y34F); experiment: as above
T6 construct: His tag; made in house; host or cells: E. coli
Protocol: as §3, §1, §2

rec-mTSPO Y34S = biological target: T7, rec-mTSPO Y34S (Mus musculus, UniProt P50637, Y34S); experiment: as above
T7 construct: His tag; made in house; host or cells: E. coli
Protocol: as §3, §1, §2

[2] = biological target: T8, rec-mTSPO ΔC-ter (153–169) (Mus musculus, UniProt P50637); experiment: as above
T8 construct: His tag; made in house; host or cells: E. coli
Protocol: as §3, §1, §2

mammalian TSPO ∆5-20 = test system: mammalian TSPO ∆5-20; set-up: method as in Li et al. (1998); conditions: bacterial protoplast, control = wild type, ref Li et al. (1998); cited from earlier work
rec-mTSPO [3] = biological target: T9, rec-mTSPO (Mus musculus, UniProt P50637); experiment: Limited trypsin digestion of rec-mTSPO solubilized in DPC; conditions: DPC 0.1%, 30 °C, TSPO:trypsin 30:1; 100 µM PK 11195 and increasing concentrations
T9 construct: His tag; made in house; host or cells: E. coli BL21 DE3
Protocol: Proteolysis was performed by mixing rec-mTSPO (0.2 mg/mL) solubilized in DPC (0.1%) and a phosphate buffer (10 mM at pH 7.0) with protease at a TSPO:Trypsin ratio of 30:1 (w/w).

rec-mTSPO [4] = biological target: T9, rec-mTSPO; conditions: cited from earlier work
[5] = test system: WT and mutants of TSPO reconstituted in liposomes; experiment: [3H]-PK 11195 saturation binding to rec-mTSPO reconstituted in proteoliposomes, all constructs; set-up: species or system mouse; conditions: all stoichiometries obtained
Protocol: as §1, §2

rec-mTSPO [6] = biological target: T9, rec-mTSPO; experiment: Circular dichroism of rec-mTSPO in DPC with PK 11195; conditions: increasing amounts of PK 11195, high ligand over protein molar ratios
Protocol: Far UV circular dichroism spectra were recorded on a Jobin-Yvon CD6 spectropolarimeter operated at room temperature according to published protocols [19, 25, 45]. Briefly, a detergent solubilized mTSPO sample (5 µM) in a 10 mM sodium phosphate buffer solution was placed in a 0.2 mm path length quartz cuvette (Hellma, Paris, France). The CD spectra were recorded in the 185 to 270 nm wavelength range with a 0.2 nm step resolution, 1 s signal averaging time and 1 nm bandwidth. The spectra were averaged over five scans, corrected for background and smoothed over 25 points. A consensus secondary structure content was estimated by spectral deconvolution using CONTINLL, CDSSTR and Selcon software and datasets of reference proteins SMP50 (37 soluble proteins and 13 membrane proteins) and SP37 (37 soluble proteins) [46], as well as CDFriend.

mammalian TSPO ∆108-119 = test system: mammalian TSPO ∆108-119; set-up: method as in Li et al. (1998); conditions: bacterial protoplast, control = wild type, ref Li et al. (1998); cited from earlier work
TSPO V26T = test system: TSPO V26T; set-up: method as in PMID 7808437; conditions: cited from earlier work
mammalian TSPO ∆141-152 = test system: mammalian TSPO ∆141-152; set-up: method as in Li et al. (1998); conditions: bacterial protoplast, control = wild type, ref Li et al. (1998); cited from earlier work
human TSPO ∆15-35 = conditions: cited from earlier work
TSPO R32G = test system: TSPO R32G; set-up: method as in PMID 7808437; conditions: cited from earlier work

## CCC(C)N(C)C(=O)c1cc2ccccc2c(-c2ccccc2Cl)n1 (centres unmarked) [PK 11195, N-butan-2-yl-1-(2-chlorophenyl)-N-methylisoquinoline-3-carboxamide]
TSPO ∆157-169
  Kd: 9 ± 3 nM
TSPO Wild-type
  Kd: 6 ± 3 nM
TSPO W42 mutation
  effect of mutation on PK 11195 binding: no effect
TSPO K39G
  effect of mutation on PK 11195 binding: no effect
TSPO2
  binding to TSPO2: not binding
TSPO ∆2-20,158-169
  Kd: > 200 nM
TSPO ∆158-159
  Kd: 10 ± 6 nM
Mammalian TSPO ∆41-51
  PK 11195 binding % of control: ~ 55 % of control and 55 % of control
TSPO ∆156-169
  Kd: 10 ± 4 nM
rec-mTSPO WT; proteoliposomes, fit of saturation curve
  Kd: 8 ± 3 nM
rec-mTSPO WT; stoichiometry, nmol PK 11195 bound per mg recombinant TSPO
  Bmax: 25 ± 3 nmol/mg
Mammalian TSPO ∆120-133
  PK 11195 binding % of control: ~ 55 % of control
[1]
  effect of A147T polymorphism on affinity: no effect
TSPO R103A
  effect of mutation on PK 11195 binding: no effect
Mammalian TSPO ∆153-169
  PK 11195 binding % of control: ~ 75 % of control and 75 % of control
TSPO ∆2-20
  Kd: 25 ± 8 nM
TSPO W47 mutation
  effect of mutation on PK 11195 binding: no effect
rec-mTSPO F100A
  Bmax: 25 ± 7 nmol/mg
  Kd: 20 ± 5 nM
rec-mTSPO Y34F/F100A; Y34F/F100A vs WT
  decrease in affinity for PK 11195 compared with WT: 20 fold
rec-mTSPO Y34F/F100A; Y34F/F100A, proteoliposomes
  Bmax: 25 ± 10 nmol/mg
  Kd: 150 ± 20 nM
rec-mTSPO Y34F
  Bmax: 27 ± 3 nmol/mg
  Kd: 20 ± 3 nM
rec-mTSPO Δ41–51
  Bmax: 25 ± 8 nmol/mg
  Kd: 20 ± 8 nM
rec-mTSPO Y34F/F99A; Y34F/F99A vs WT
  decrease in affinity for PK 11195 compared with WT: 20 fold
rec-mTSPO Y34F/F99A; Y34F/F99A, proteoliposomes
  Bmax: 25 ± 10 nmol/mg
  Kd: 150 ± 20 nM
rec-mTSPO Y34S
  Bmax: 25 ± 5 nmol/mg
  Kd: 40 ± 7 nM
[2]
  Bmax: 30 ± 10 nmol/mg
  Kd: 20 ± 5 nM
Mammalian TSPO ∆5-20
  PK 11195 binding % of control: ~ 70 % of control
rec-mTSPO [3]
  effect on proteolytic cleavage of rec-mTSPO by trypsin: protected against cleavage
rec-mTSPO [4]; SDS-solubilized rec-mTSPO
  PK 11195 binding in detergent: no PK 11195 binding
rec-mTSPO [4]; detergent-solubilized, additional interaction between PK 11195 and detergent
  affinity with detergent-solubilized rec-mTSPO: micro-millimolar range
rec-mTSPO [4]; rec-mTSPO in the presence of DPC
  PK 11195 binding in detergent: observed
[5]
  stoichiometry (Bmax): 25–30 nmol of PK 11195 bound per mg of recombinant TSPO
rec-mTSPO [6]
  effect on CD spectrum of rec-mTSPO: increasing changes in the CD spectrum
Mammalian TSPO ∆108-119
  PK 11195 binding % of control: ~ 70 % of control
TSPO V26T
  effect of mutation on PK 11195 binding: complete loss of PK 11195 binding
Mammalian TSPO ∆141-152
  PK 11195 binding % of control: ~ 75 % of control
Human TSPO ∆15-35; Δ15–35 of human TSPO overexpressed in yeast
  effect of deletion on PK 11195 binding: complete loss of PK 11195 binding; also recorded: loses its binding capacity
Human TSPO ∆15-35; ∆15-35, yeast mitochondria, ref Farges et al. (1994), read-out: PK 11195 Kd
  Kd: > 200 nM
TSPO R32G
  effect of mutation on PK 11195 binding: no effect

## COc1ccccc1CN(C(C)=O)c1cnccc1Oc1ccccc1 [PBR28]
[1]
  decrease of the affinity due to A147T polymorphism: one or two orders of magnitude
